Experimental data as given in the supplement of paper PMC11962398.

What was measured:
BI-2493 [1] = compound: T1, C[C@H]1CNCCN1c1nccc(-c2noc3c2CCC[C@@]32CCCc3sc(N)c(C#N)c32)n1 [BI-2493]; settings: 5 days
Procedure: (§1)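 PRISM pooled barcoded cancer cell line viability screen (Broad Institute) with BI-2493 at 8 doses in threefold dilutions from 0.00457 to 10 µmol/L, 5-day treatment; curves fitted per cell line. IC50 is undefined (placeholder) for resistant lines. AUC is capped at 1, and sensitivity is reported as 1 − AUC.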

BI-2493 [2] = compound: T1, BI-2493; assay: 1 - AUC of viability dose-response curve (sensitivity) (fraction); higher = more sensitive; settings: 5 days
Procedure: as §1

Row | Test System | IC50 of cell viability (BI-2493 [1]) | 1 - AUC of viability dose-response curve (BI-2493 [2])
1 | CAOV3_OVARY | > 10 µM | 0.0615
2 | CAPAN2_PANCREAS | 1.2 µM | 0.303
3 | CAS1_CENTRAL_NERVOUS_SYSTEM | 9.1 µM | 0.0158
4 | CASKI_CERVIX | 8.68 µM | 0.0572
5 | CCFSTTG1_CENTRAL_NERVOUS_SYSTEM | > 10 µM | 0.00118
6 | CCK81_LARGE_INTESTINE | 6.18 µM | 0.0958
7 | CCLP1_BILIARY_TRACT | 7.32 µM | 0.0617
8 | CCSW1_BILIARY_TRACT | 5.45 µM | 0.14
9 | CFPAC1_PANCREAS | 4.12 µM | 0.15
10 | CH157MN_CENTRAL_NERVOUS_SYSTEM | 8.61 µM | 0.0235
11 | CHAGOK1_LUNG | 4.47 µM | 0.173
12 | CHL1_SKIN | 4.96 µM | 0.14
13 | CHLA06ATRT_SOFT_TISSUE | 7.12 µM | 0.141
14 | CHLA15_AUTONOMIC_GANGLIA | 5.41 µM | 0.187
15 | CHLA57_BONE | 3.06 µM | 0.211
16 | CHLA200_CENTRAL_NERVOUS_SYSTEM | 9.58 µM | 0.0104
17 | CHP212_AUTONOMIC_GANGLIA | 9.9 µM | 0.00818
18 | CJM_SKIN | 5.39 µM | 0.11
19 | CL11_LARGE_INTESTINE | 5.92 µM | 0.117
20 | CL34_LARGE_INTESTINE | > 10 µM | 0.00172
21 | CMLT1_HAEMATOPOIETIC_AND_LYMPHOID_TISSUE | 4.55 µM | 0.129
22 | COGN278_AUTONOMIC_GANGLIA | 7.86 µM | 0.0701
23 | COLO320_LARGE_INTESTINE | 7.35 µM | 0.057
24 | COLO668_LUNG | 5.95 µM | 0.103

Row | Test System | IC50 of cell viability (BI-2493 [1]) | 1 - AUC of viability dose-response curve (BI-2493 [2])
25 | COLO679_SKIN | 4.47 µM | 0.146
26 | COLO680N_OESOPHAGUS | 8.49 µM | 0.0719
27 | COLO741_SKIN | 9.66 µM | 0.00696
28 | COLO783_SKIN | 5.22 µM | 0.176
29 | COLO792_SKIN | 7.62 µM | 0.221
30 | COLO800_SKIN | 7.65 µM | 0.0454
31 | CORL23_LUNG | 5.82 µM | 0.0991
32 | CORL88_LUNG | 4.54 µM | 0.143
33 | CORL105_LUNG | > 10 µM | 0.157
34 | CORL279_LUNG | 7.86 µM | 0.134
35 | COV318_OVARY | > 10 µM | 0.0643
36 | COV362_OVARY | > 10 µM | 0.00606
37 | COV434_OVARY | 3.6 µM | 0.191
38 | COV644_OVARY | 7.18 µM | 0.157
39 | CW2_LARGE_INTESTINE | 8.55 µM | 0.071
40 | CW9019_SOFT_TISSUE | 3.99 µM | 0.111
41 | DAOY_CENTRAL_NERVOUS_SYSTEM | 9.62 µM | 0.0237
42 | DBTRG05MG_CENTRAL_NERVOUS_SYSTEM | 7.98 µM | 0.0396
43 | DETROIT562_UPPER_AERODIGESTIVE_TRACT | 2.81 µM | 0.18
44 | DKMG_CENTRAL_NERVOUS_SYSTEM | 4.05 µM | 0.112
45 | DL_SOFT_TISSUE | 4.57 µM | 0.192
46 | DMS53_LUNG | 6.38 µM | 0.114
47 | DMS79_LUNG | > 10 µM | 0.0188
48 | DMS273_LUNG | 2.81 µM | 0.265

Row | Test System | IC50 of cell viability (BI-2493 [1]) | 1 - AUC of viability dose-response curve (BI-2493 [2])
49 | DND41_HAEMATOPOIETIC_AND_LYMPHOID_TISSUE | 4.59 µM | 0.156
50 | DOTC24510_CERVIX | 6.38 µM | 0.0765
51 | DU145_PROSTATE | > 10 µM | 0.172
52 | DU4475_BREAST | 2.96 µM | 0.151
53 | DV90_LUNG | 0.856 µM | 0.308
54 | EB1_HAEMATOPOIETIC_AND_LYMPHOID_TISSUE | 9.47 µM | 0.0219
55 | EBC1_LUNG | 6.97 µM | 0.0696
56 | ECC2_BILIARY_TRACT | > 10 µM | < 0
57 | ECC10_STOMACH | 4.51 µM | 0.0829
58 | ECGI10_OESOPHAGUS | 4.75 µM | 0.15
59 | EFM19_BREAST | 8.2 µM | 0.0426
60 | EFM192A_BREAST | > 10 µM | 0.0526
61 | EFO21_OVARY | > 10 µM | 0.106
62 | EFO27_OVARY | 9.28 µM | 0.167
63 | EKVX_LUNG | 7.44 µM | 0.146
64 | EM2_HAEMATOPOIETIC_AND_LYMPHOID_TISSUE | 4.85 µM | 0.207
65 | EMTOKA_ENDOMETRIUM | 4.31 µM | 0.0999
66 | EN_ENDOMETRIUM | 9.54 µM | 0.0294
67 | EOL1_HAEMATOPOIETIC_AND_LYMPHOID_TISSUE | 0.77 µM | 0.355
68 | ES2_OVARY | 9.51 µM | 0.00984
69 | ESS1_ENDOMETRIUM | 1.43 µM | 0.362
70 | EW8_BONE | 4.5 µM | 0.0935
71 | EWS502_BONE | 3.56 µM | 0.177
72 | FADU_UPPER_AERODIGESTIVE_TRACT | 6.09 µM | 0.102

Row | Test System | IC50 of cell viability (BI-2493 [1]) | 1 - AUC of viability dose-response curve (BI-2493 [2])
73 | FLO1_OESOPHAGUS | 4.86 µM | 0.0758
74 | FTC133_THYROID | > 10 µM | 0.0578
75 | G292CLONEA141B1_BONE | > 10 µM | 0.0653
76 | G361_SKIN | 4.01 µM | 0.117
77 | G401_SOFT_TISSUE | > 10 µM | 0.17
78 | G402_SOFT_TISSUE | 4.25 µM | 0.117
79 | G415_BILIARY_TRACT | 2.22 µM | 0.245
80 | GAMG_CENTRAL_NERVOUS_SYSTEM | 8.24 µM | 0.0333
81 | GB1_CENTRAL_NERVOUS_SYSTEM | > 10 µM | 0.00342
82 | GB2_BILIARY_TRACT | 2.24 µM | 0.256
83 | GCIY_STOMACH | > 10 µM | 0.00163
84 | GCT27_TESTIS | > 10 µM | 0.128
85 | GCT_SOFT_TISSUE | 6.05 µM | 0.0856
86 | GI1_CENTRAL_NERVOUS_SYSTEM | 3.59 µM | 0.132
87 | GOS3_CENTRAL_NERVOUS_SYSTEM | 9.35 µM | 0.0406
88 | GP5D_LARGE_INTESTINE | > 10 µM | 0.0606
89 | GRANTA519_HAEMATOPOIETIC_AND_LYMPHOID_TISSUE | > 10 µM | 0.0332
90 | GSS_STOMACH | 3.3 µM | 0.19
91 | H4_CENTRAL_NERVOUS_SYSTEM | 5.48 µM | 0.0861
92 | H103_UPPER_AERODIGESTIVE_TRACT | 7.57 µM | 0.0476
93 | H157_UPPER_AERODIGESTIVE_TRACT | 8.84 µM | 0.023
94 | H376_UPPER_AERODIGESTIVE_TRACT | 5.33 µM | 0.243
95 | H413_UPPER_AERODIGESTIVE_TRACT | > 10 µM | 0.126
96 | HA1E_KIDNEY | > 10 µM | 0.223
